Measured values taken from paper PMC9790248, “Effects of CYP3A Inhibition, CYP3A Induction, and Gastric Acid Reduction on the Pharmacokinetics of Ripretinib, a Switch Control KIT Tyrosine Kinase Inhibitor” (Clinical Pharmacology in Drug Development, 2022).

Assays:
Solubility = format: physicochemical
[1] = Stability in human plasma (K2EDTA), bioanalytical validation; format: in vitro ADME; conditions: with or without concomitant medications
Procedure: Following the bioanalytical method validation guidance, the analytical method was validated to verify that the assay was a robust and reliable measurement of ripretinib and DP‐5439 in human plasma with dipotassium ethylenediaminetetraacetic acid (K2EDTA) as the anticoagulant. The linear range of method was 2.00–1000 ng/mL for both ripretinib and DP‐5439. The coefficient of variation (CV%) (precision) for intra‐ and interassay at each quality control (QC) level was ≤15.0% (≤20.0% at the LLOQ QC level: 2 ng/mL for both ripretinib and DP‐5439). The mean % Bias (accuracy) at each QC level was within ±15.0% (±20.0% at the LLOQ QC level) from its respective nominal concentration.

hepatocytes = system: hepatocytes; design: method as in PMID 31085175; conditions: cited from earlier work
CYP2C9 = CYP2C9 (Homo sapiens, UniProt P11712); experiment: Incubation with recombinant human CYPs, substrate disappearance; format: in vitro ADME; conditions: ripretinib 0.1 or 1 μM, data on file
Procedure: (§1) In vitro studies with recombinant human cytochrome P450 isoforms (CYPs) and human liver microsomes (with chemical inhibitors) indicate that CYP3A4/5 plays a major role in the metabolism of ripretinib (data on file). When incubated with a panel of recombinant human CYPs, ripretinib (0.1 or 1 μM) disappeared in the presence of CYP3A4 (87.8%–100%), CYP2D6 (97.7%–100%), CYP2C8 (71.2% and 18.9%, respectively), and CYP2C19 (15.7% and 6.7%, respectively).

CYP2C8 = target: T1, CYP2C8 (Homo sapiens, UniProt P10632); experiment: as above; format: in vitro ADME; conditions: data on file
T1 sequence (P10632 1-490): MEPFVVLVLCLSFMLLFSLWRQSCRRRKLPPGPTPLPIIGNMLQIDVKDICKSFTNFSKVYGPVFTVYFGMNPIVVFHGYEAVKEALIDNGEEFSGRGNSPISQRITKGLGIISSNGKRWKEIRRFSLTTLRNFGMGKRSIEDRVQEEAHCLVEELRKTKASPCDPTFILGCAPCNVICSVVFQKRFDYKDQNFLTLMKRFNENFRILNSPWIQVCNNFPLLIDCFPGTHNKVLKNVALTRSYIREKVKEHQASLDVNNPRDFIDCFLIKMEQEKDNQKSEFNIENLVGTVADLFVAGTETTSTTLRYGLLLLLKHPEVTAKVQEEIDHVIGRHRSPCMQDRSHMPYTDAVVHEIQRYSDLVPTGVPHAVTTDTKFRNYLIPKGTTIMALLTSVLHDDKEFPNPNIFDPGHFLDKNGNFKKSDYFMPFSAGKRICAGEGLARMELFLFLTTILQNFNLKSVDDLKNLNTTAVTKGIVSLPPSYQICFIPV
Procedure: as §1

CYP1A2 = target: T2, CYP1A2 (Homo sapiens, UniProt P05177); experiment: as above; format: in vitro ADME; conditions: ripretinib 0.1 or 1 μM, data on file
T2 sequence (P05177 1-516): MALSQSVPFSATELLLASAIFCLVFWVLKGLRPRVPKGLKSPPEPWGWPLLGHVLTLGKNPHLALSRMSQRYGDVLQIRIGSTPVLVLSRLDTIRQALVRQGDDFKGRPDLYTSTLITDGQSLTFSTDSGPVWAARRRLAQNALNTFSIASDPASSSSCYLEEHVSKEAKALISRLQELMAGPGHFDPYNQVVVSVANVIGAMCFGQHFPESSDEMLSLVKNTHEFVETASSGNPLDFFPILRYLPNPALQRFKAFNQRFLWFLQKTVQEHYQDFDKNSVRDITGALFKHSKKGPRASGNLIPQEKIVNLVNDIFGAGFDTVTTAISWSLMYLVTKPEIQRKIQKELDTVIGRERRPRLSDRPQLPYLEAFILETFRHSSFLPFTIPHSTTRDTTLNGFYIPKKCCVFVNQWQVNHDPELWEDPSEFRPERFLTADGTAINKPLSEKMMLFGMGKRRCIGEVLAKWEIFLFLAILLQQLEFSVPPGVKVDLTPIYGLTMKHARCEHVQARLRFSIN
Procedure: as §1

CYP3A4 = CYP3A4 (Homo sapiens, UniProt P08684); experiment: as above; format: in vitro ADME; conditions: ripretinib 0.1 or 1 μM, data on file
Procedure: as §1

[2] = Safety assessment (TEAEs), rifampin study; format: in vivo, human
Procedure: Participants were confined to the study center from days −1 through 22 for the collection of plasma PK samples and all study procedures. Participants received an oral dose of ripretinib 100 mg on day 1 under fasting conditions; a higher dose of ripretinib was used than in the itraconazole or pantoprazole study due to the potential for decreased ripretinib exposure when coadministered with a strong CYP3A inducer (Figure 1B). On day 8, participants received oral doses of rifampin 600 mg once daily 1 hour before a meal with a full glass of water for 14 consecutive days through day 21. On day 18, participants received a second dose of ripretinib 100 mg administered simultaneously with rifampin 600 mg under fasting conditions. Blood samples for PK analysis were collected at predose and 1, 2, 3, 4, 5, 8, 10, 12, 24, 36, 48, 72, and 96 hours after administration of ripretinib on days 1 and 18. Safety was assessed throughout the study period and with a follow‐up phone call on day 29 or 7 days after discontinuation in the case of early withdrawal.
Relationship to study drug was assessed by the investigator.
Safety data were summarized as n (%).

[3] = Safety assessment (TEAEs), itraconazole study
Procedure: On days 8 through 10, participants received itraconazole 200 mg once daily with a meal or snack. On day 11, participants received ripretinib 50 mg 1 hour after itraconazole 200 mg under fasting conditions. On days 12 through 17, participants received itraconazole 200 mg once daily with a meal or snack. […] Safety was assessed throughout and a follow‐up safety phone call was conducted at day 24 or 7 days after the last dose of study drug if participants withdrew early.
TEAEs were defined as adverse events (AEs) that occurred/worsened during or after administration of any of the study drugs. Relationship to study drug was assessed by the investigator. The safety population included all enrolled participants who received ≥1 dose of ripretinib.
Participant demographics, clinical characteristics, and PK parameters were summarized using descriptive statistics. Safety data were summarized as n (%). […] PK parameters were calculated using Phoenix® WinNonlin® v7.0 or higher (Certara USA Inc.).

[4] = itraconazole study: ripretinib 50 mg alone and with itraconazole 200 mg QD, safety population N = 20

CYP2C9, sequence (P11712 whole entry, canonical isoform): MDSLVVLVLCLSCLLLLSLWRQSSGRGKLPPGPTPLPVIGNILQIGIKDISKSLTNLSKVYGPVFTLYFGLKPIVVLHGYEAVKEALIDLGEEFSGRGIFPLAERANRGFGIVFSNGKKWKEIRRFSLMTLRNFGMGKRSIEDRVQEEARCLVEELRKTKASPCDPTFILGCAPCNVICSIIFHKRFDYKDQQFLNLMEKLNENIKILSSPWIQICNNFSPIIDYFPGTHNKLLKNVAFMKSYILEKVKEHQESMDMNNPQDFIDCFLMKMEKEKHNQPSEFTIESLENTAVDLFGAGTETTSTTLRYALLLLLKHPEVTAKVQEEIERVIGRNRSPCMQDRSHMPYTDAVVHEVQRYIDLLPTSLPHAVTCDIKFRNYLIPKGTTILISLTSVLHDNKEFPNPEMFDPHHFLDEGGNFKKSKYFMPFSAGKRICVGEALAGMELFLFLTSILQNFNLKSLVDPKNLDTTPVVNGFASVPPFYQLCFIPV
CYP3A4, sequence (P08684 whole entry): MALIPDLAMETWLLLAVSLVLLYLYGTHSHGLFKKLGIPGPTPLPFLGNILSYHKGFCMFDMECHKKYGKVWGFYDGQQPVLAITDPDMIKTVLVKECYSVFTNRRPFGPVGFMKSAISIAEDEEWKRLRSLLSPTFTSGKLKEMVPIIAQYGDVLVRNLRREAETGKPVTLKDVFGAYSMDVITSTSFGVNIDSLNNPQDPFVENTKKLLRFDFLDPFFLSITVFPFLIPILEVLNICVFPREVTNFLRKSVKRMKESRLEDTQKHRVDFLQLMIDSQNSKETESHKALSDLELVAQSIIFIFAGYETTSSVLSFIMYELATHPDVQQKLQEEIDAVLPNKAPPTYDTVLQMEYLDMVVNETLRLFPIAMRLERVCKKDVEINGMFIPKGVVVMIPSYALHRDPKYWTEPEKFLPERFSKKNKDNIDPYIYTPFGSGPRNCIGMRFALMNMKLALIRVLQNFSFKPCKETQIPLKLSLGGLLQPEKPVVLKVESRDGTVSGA

Structure (SMILES): CCn1c(=O)c(-c2cc(NC(=O)Nc3ccccc3)c(F)cc2Br)cc2cnc(NC)cc21 [Ripretinib]
- Solubility, pH dependence (Solubility): reduced solubility at neutral pH
- Stability in human plasma at room temperature ([1]; 16 hours at room temperature under normal laboratory lighting): stable
- Stability in human plasma, freeze–thaw ([1]; four cycles of freeze (−20 and −70°C) and thaw (room temperature)): stable
- Major metabolic pathway (hepatocytes): N‐demethylation
- Substrate disappearance (CYP2C9): less than 7%
- Substrate disappearance (CYP2C8; ripretinib 0.1 μM): 71.2%
- Substrate disappearance (CYP2C8; ripretinib 1 μM): 18.9%
- Substrate disappearance (CYP1A2): less than 7%
- Substrate disappearance (CYP3A4): 87.8%–100%
- Number of TEAEs assessed as related to study drug ([2]; human, in vivo, 21 days): 78
- Participants with TEAEs assessed as related to study drug per the investigator ([2]; human, in vivo, 21 days): 23 (95.8%) n (%)
- Total number of TEAEs ([2]; human, in vivo, 21 days): 94
- Deaths and serious AEs ([2]; rifampin study, N = 24): No deaths or SAEs occurred
- Deaths and serious AEs ([3]; itraconazole study, N = 20): No deaths occurred and no participants experienced serious AEs
- Number of TEAEs attributed to study drug ([3]; itraconazole study, N = 20): 36
- Participants with TEAEs attributed to study drug per the investigator ([3]; itraconazole study, N = 20): 13 (65%) n (%)
- Total number of TEAEs ([3]; itraconazole study, N = 20): 44
- Participants reporting any TEAE [3, 4]: 14 (70.0) n (%)
- TEAE: ALT increase [3, 4]: 1 (5.0) n (%)
- TEAE: AST increase [3, 4]: 0 n (%)
- TEAE: Abdominal discomfort [3, 4]: 0 n (%)
- TEAE: Abdominal pain [3, 4]: 3 (15.0) n (%)
- TEAE: Abdominal pain lower [3, 4]: 1 (5.0) n (%)
- TEAE: Amylase increase [3, 4]: 4 (20.0) n (%)
- TEAE: Constipation [3, 4]: 1 (5.0) n (%)
- TEAE: Diarrhea [3, 4]: 4 (20.0) n (%)
- TEAE: Fatigue [3, 4]: 1 (5.0) n (%)
- TEAE: Headache [3, 4]: 2 (10.0) n (%)
- TEAE: Lipase increase [3, 4]: 5 (25.0) n (%)
- TEAE: Nausea [3, 4]: 2 (10.0) n (%)
- TEAE: Vomiting [3, 4]: 1 (5.0) n (%)
- Participants reporting any TEAE ([3]; itraconazole study: ripretinib 50 mg alone and with itraconazole 200 mg QD, safety population N = 20, listed as ripretinib): 14 (70%) n (%)
